From patent US20240398737A1, “FUNCTIONALIZED LONG-CHAIN HYDROCARBON MONO- AND DI-CARBOXYLIC ACIDS AND DERIVATIVES THEREOF, AND THEIR USE FOR THE PREVENTION OR TREATMENT OF DISEASE” (Espervita Therapeutics, Inc., priority 2021, published 2024)
“Also recorded” adds a separate entry of the source.

What was measured:
[1] = test system: bone marrow derived macrophages (BMDMs); assay: LPS-induced glycolysis in bone marrow derived macrophages (Seahorse); assay type: cell-based, mouse; settings: LPS + Compound I-1 50 μM, 4 hours
Experimental: (§1) Example 10: Treatment of bone marrow derived macrophages Mϕ (BMDMs) with Compound I-1 suppresses lipopolysaccharide (LPS)-induced glycolysis and inflammation. Macrophage were isolated as follows: femurs and tibia were collected from mice, cleaned of any soft tissues and the ends were cut off from each bone. The tibia and femur were then transferred into 1.5 mL Eppendorf tubes and the marrow was extracted via centrifugation (1900 g×5 min), resuspended in DMEM and strained through a 40 μm strainer into a 50 ml falcon tube. The strainer was rinsed with an additional 40 mL of DMEM, the cell suspension was transferred to a T175 flask, an additional 60 mL of DMEM was added and the cells were cultured at 37° C. for 4 hours. Differentiation was initiated by adding 20 mL of L929 fibroblast conditioned media and 12 mL was plated on 100 mm dishes. The cells were then left for 7 days to differentiate into macrophages. […] Changes in gene expression were calculated using 2-delta cT method. Macrophage glycolytic rates were assessed using a Seahorse Bioanalyzer (XFe96, Agilent Scientific Instruments). […] The following day cells were serum-starved for 2 hours then treated with LPS (100 ng/mL) and Compound I-1 (50 μM) and glycolytic rate was analyzed (Agilent Seahorse XFp Cell Energy Phenotype Test Kit, Cat #103275-100).

[2] = test system: female Wistar Han rats; assay: 4-day oral gavage toxicity study in female rats; settings: 4 days; for Compound-related effects in hematology or coagulation test results / Compound-related mortality, clinical observations, body weight effects, or changes in food consumption: 100 or 300 mg/kg/day oral gavage once daily; for Compound-related macroscopic observations: 100 or 300 mg/kg/day
[3] = test system: bone marrow derived macrophages (BMDMs); assay: LPS-induced Il-6 and Il-1b mRNA in BMDMs (RT-qPCR); assay type: cell-based, mouse; settings: LPS 10 ng/mL + Compound I-1 50 μM, 4 hours
Experimental: as §1

[4] = test system: C57BL6/J mice; assay: Indirect calorimetry (CLAMS) in fructose-fed C57BL6/J mice; assay type: in vivo, mouse; settings: 100 mg/kg oral gavage
Experimental: Materials and Methods. All experiments were carried out using the methods approved by the Animal Research Ethics Board at McMaster University, Canada (Steinberg Laboratory Animal Utilization Protocol #16-12-42). 8-Week-old male C57BL6/J mice were ordered from Jackson Laboratory, Bar Harbor, Maine and housed at the McMaster University Central Animal Facility. Animals were housed in the ventilated cages racks system and provided with ad libitum access to normal chow diet (Teklad 8640 22/5 rodent diet, procured from Envigo, Mississauga ON) and water supplemented with fructose (30% weight/volume, made fresh weekly) for at least 2-weeks before testing commenced. A 12-hour light/dark cycle and a temperature of 23±2° C. were maintained throughout the animal housing. Data were analyzed using one-way analyses of variance followed by a Tukey's multiple comparisons post hoc test where appropriate. All statistical analysis was carried out using GraphPad Prism 8 software. A p-value of less than or equal 0.05 was considered significant.
Experimental and Results. Respiratory Exchange Ratio (RER) and related metabolic parameters were measured using the Comprehensive Lab Animal Monitoring System (CLAMS, Columbus Instruments, Columbus, Ohio). Animals were placed in CLAMS and allowed ad libitum access to normal chow diet and water supplemented with fructose (30% weight/volume) for at least 24 hours before the experiment began. At 5:30 p.m. chow diet was removed and water containing 30% fructose was replaced with normal tap water. Animals were fasted overnight until food and 30% fructose water were made accessible the next day at 7:30 a.m. (14 hours total). Animals were allowed to feed ad libitum for ˜2 hours. RER was monitored and those animals with RER values >1 were administered either vehicle (1.5% Carboxymethyl cellulose and 0.2% Tween 20) alone or vehicle containing Compound I-1 or Compound I-32 at a dose of 100 mg/kg via oral gavage. Animals remained in the metabolic cages and RER, activity level, locomotor activity, and food intake were monitored for 24 hours. Metabolic parameters were calculated using Oxymax software included with Comprehensive Lab Animal Monitoring System (CLAMS). RER was calculated as the […] given by the following equation: […]
Locomotor activity was calculated as the total number of beam breaks in each cage over a 24-hour period. The heat (calorific value, CV) was calculated by the following equation: […]

Row | Structure (SMILES) | LPS-induced glycolysis (glycolytic rate, Seahorse) [1] | Adversity of the effects at this dose ([2]; 100 mg/kg/day) | Albumin:globulin ratio (clinical chemistry) ([2]; 100 mg/kg/day) | Globulin concentration (clinical chemistry) ([2]; 100 mg/kg/day) | Adversity of the effects at this dose ([2]; 300 mg/kg/day) | Albumin:globulin ratio (clinical chemistry) ([2]; 300 mg/kg/day) | Globulin concentration (clinical chemistry) ([2]; 300 mg/kg/day) | Kidney microscopic findings ([2]; 300 mg/kg/day) | Compound-related effects in hematology or coagulation test results [2] | Compound-related mortality, clinical observations, body weight effects, or changes in food consumption [2] | Compound-related macroscopic observations [2] | Liver microscopic findings ([2]; >100 mg/kg/day (so in the source)) | Il-1b mRNA (marker of inflammation) [3] | Il-6 mRNA (marker of inflammation) [3] | Duration of the RER reduction [4] | Respiratory exchange ratio (RER) compared to vehicle treated group [4] | Time to detection of the RER reduction after treatment [4] | Liver microscopic findings ([2]; 300 mg/kg/day) | Serum urea nitrogen concentration ([2]; 300 mg/kg/day, considered potentially compound-related)
1 | CC(C)(CCCCc1ccc(CCCCC(C)(C)C(=O)O)cc1)C(=O)O [Compound I-1, 6-[4-(5-carboxy-5-methylhexyl)-phenyl]-2,2-dimethylhexanoic acid] | suppression | nonadverse | minimally higher | minimally lower | adverse | minimally higher | minimally lower | tubular degeneration/necrosis, tubular regeneration, and increased mitoses | No | No | No | increase in mitoses in hepatocytes | suppression | suppression | 6 h | significant reduction | ≤ 1 h |  | 
2 | CC(C)(CCCCc1cccc(CCCCC(C)(C)C(=O)O)c1)C(=O)O [Compound I-32, 6-[3-(5-carboxy-5-methylhexyl)-phenyl]-2,2-dimethylhexanoic acid] |  |  |  |  | nonadverse | minimally higher | minimally lower |  | No | No | No |  |  |  | 6 h | significant reduction | ≤ 1 h | increase in mitoses in hepatocytes; also recorded: periportal hepatocyte vacuolation | Minimally lower
